In one assay the test system is HCC70 cells. Briefly: Cell bioactivity detection (CyQuant), HCC70. It is filed as cell-based. Particulars: Homo sapiens, HCC70, 72 h, human breast cancer cells HCC70, 72 hours. Summed up: (§1)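 A2780 or HCC70 cells (2000/well, RPMI 1640 + 10% FBS) were seeded overnight, then treated for 72 h at 37° C, 5% CO2 with compound: top 10 μM, 1:4 dilutions, 9 points, 0.2% DMSO. Viable cell number was measured by CyQuant Direct nucleic-acid staining (≥60 min, 37° C) on an Acumen reader at 488 nm excitation, and IC50 was calculated.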

The target of assay [1] is CDK12(aa686-1082)/cyclin K complex (Homo sapiens (Human), UniProt Q9NYV4). Description: In vitro enzymatic inhibitory activity test, CDK12. It is filed as biochemical. Particulars: Caliper mobility shift, 180 min at 27° C.
The target in another assay is CDK2/cyclin E1 complex (Homo sapiens (Human), UniProt P24941). Briefly: In vitro enzymatic inhibitory activity test, CDK2. The following applies: Caliper mobility shift, 180 min at 27° C. It is filed as biochemical.
The next assay addresses CDK9/CyclinT1 (Homo sapiens (Human), UniProt P50750). Briefly: In vitro enzymatic inhibitory activity test, CDK9. Particulars: Caliper mobility shift, 180 min at 27° C. It is filed as biochemical.
Assay [2] addresses CDK7/cyclin H/MAT1 complex (Homo sapiens (Human), UniProt P50613). Description: In vitro enzymatic inhibitory activity test, CDK7. Particulars: Caliper mobility shift, 180 min at 27° C. It is filed as biochemical.
For the next assay, the system named is A2780 cells. Description: Cell bioactivity detection (CyQuant), A2780. It is filed as cell-based, human. The following applies: Homo sapiens, A2780, 72 h, ovarian carcinoma cells A2780, 72 hours. Summed up:
as §1

Structures can show the parent of a compound that is named as a salt.

Sequence of CDK12(aa686-1082)/cyclin K complex (Q9NYV4 686-1082, species assumed): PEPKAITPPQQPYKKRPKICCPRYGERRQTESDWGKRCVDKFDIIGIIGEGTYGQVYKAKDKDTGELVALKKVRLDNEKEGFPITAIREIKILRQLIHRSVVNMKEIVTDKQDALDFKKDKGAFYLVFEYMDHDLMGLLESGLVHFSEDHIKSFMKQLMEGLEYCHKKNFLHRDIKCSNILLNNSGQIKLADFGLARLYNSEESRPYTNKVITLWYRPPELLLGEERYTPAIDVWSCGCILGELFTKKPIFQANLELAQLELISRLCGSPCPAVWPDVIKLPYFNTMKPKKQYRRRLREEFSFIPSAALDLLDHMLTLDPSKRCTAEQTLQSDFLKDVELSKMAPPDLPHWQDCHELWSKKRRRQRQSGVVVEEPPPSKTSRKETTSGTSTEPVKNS
Sequence of CDK12(aa686-1082)/cyclin K complex (O75909 whole entry partner, species assumed, the tested form may be a part): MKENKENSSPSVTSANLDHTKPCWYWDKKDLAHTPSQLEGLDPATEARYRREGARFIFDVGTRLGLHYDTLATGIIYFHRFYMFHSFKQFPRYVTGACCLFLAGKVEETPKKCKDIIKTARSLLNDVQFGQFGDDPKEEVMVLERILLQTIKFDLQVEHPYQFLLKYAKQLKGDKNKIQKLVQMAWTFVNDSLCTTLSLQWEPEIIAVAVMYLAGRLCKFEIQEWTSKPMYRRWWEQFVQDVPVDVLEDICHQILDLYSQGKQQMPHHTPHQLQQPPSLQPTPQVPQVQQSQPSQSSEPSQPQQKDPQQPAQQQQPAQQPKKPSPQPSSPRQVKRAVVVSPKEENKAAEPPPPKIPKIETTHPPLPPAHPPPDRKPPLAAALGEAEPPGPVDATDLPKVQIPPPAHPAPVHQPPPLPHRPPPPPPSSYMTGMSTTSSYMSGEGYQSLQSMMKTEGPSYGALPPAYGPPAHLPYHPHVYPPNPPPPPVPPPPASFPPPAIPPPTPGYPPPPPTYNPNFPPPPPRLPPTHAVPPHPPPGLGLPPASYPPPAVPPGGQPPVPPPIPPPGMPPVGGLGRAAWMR
Sequence of CDK7/cyclin H/MAT1 complex (P50613 whole entry, species assumed): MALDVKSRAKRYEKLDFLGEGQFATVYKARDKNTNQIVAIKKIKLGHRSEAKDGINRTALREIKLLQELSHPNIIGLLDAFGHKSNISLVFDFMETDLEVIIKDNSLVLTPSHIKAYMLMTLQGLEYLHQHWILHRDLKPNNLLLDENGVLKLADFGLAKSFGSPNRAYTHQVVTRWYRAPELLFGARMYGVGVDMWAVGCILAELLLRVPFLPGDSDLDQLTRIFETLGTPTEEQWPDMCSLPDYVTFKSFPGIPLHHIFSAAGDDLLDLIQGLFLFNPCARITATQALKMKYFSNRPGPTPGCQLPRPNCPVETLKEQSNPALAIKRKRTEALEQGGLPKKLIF
Sequence of CDK7/cyclin H/MAT1 complex (P51946 whole entry partner, species assumed): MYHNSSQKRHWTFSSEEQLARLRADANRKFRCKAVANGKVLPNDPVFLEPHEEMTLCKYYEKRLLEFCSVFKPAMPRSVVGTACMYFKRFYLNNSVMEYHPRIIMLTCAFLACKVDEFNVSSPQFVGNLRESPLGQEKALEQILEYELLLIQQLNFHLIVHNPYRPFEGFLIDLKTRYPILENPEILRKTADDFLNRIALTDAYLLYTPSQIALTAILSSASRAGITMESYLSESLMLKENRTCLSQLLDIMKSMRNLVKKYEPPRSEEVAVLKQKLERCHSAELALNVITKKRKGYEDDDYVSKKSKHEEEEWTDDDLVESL
Sequence of CDK7/cyclin H/MAT1 complex (P51948 whole entry partner, species assumed): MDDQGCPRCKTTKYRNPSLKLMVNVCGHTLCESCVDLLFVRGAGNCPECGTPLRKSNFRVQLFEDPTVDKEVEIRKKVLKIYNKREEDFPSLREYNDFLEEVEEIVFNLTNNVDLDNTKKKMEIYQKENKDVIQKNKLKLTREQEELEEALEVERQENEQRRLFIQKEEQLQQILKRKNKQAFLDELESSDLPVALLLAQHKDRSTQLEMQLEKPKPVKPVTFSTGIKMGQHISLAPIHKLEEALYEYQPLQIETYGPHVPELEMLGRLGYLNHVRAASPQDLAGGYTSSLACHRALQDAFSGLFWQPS
Sequence of CDK9/CyclinT1 (P50750 whole entry, species assumed): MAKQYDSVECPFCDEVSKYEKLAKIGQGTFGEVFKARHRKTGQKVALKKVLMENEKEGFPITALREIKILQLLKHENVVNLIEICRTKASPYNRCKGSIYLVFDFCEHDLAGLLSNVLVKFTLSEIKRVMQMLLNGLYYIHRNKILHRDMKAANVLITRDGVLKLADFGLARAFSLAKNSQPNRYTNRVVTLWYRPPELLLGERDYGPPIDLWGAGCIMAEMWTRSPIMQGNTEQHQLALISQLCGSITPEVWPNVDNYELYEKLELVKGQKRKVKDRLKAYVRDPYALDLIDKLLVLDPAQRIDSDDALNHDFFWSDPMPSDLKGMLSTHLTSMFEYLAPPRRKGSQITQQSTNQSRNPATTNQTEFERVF
Sequence of CDK9/CyclinT1 (O60563 whole entry partner, species assumed): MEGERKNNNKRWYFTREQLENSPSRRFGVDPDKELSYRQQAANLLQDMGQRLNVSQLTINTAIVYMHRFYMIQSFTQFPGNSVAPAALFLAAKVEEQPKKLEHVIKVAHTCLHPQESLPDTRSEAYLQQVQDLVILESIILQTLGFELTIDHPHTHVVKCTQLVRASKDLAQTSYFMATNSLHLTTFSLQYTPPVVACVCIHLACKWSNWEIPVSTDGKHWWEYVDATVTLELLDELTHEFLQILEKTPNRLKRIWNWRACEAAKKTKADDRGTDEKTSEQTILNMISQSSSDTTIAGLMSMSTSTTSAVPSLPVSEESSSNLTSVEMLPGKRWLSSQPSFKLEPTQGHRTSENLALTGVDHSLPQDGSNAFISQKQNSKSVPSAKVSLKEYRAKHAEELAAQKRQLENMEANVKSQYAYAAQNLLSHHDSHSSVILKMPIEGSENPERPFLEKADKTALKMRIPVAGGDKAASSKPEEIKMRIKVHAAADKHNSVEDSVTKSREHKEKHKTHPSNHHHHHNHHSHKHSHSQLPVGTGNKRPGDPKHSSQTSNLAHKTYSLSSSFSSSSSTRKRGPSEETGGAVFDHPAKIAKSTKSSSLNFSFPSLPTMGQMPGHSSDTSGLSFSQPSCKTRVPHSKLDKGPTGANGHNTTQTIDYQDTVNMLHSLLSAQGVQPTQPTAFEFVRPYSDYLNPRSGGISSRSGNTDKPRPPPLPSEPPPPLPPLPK

A word on the IC50: it is the concentration that inhibits the measured activity by half. In the case of `CC[C@H]1COCCN1c1ccc2c(-c3nc(N[C@H]4CCCNC4)ncc3C(F)(F)F)c[nH]c2n1` [Compound 104, 4-(6-((S)-3-ethylmorpholinyl)-1H-pyrrol[2,3-b]pyridin-3-yl)-N—((S)-piperidin-3-yl)-5-(trifluoromethyl)pyrimidine-2-amine formate], the IC50 with HCC70 cells came to 4.97 nM; in assay [1], 773 nM; at CDK2/cyclin E1 complex it was 1550 nM; at CDK9/CyclinT1, 2750 nM; in assay [2], 5.85 nM; in the assay with A2780 cells, 5.37 nM.

With `FC(F)(F)c1cnc(N[C@H]2CCCNC2)nc1-c1c[nH]c2nc(C3=CCCCO3)ccc12` [Compound 109, (S)-4-(6-(3,4-dihydropyran-6-yl)-1H-pyrrol[2,3-b]pyridin-3-yl)-N-(piperidin-3-yl)-5-(trifluoromethyl)pyrimidine-2-amine], the half-maximal inhibitory concentration (IC50) in the assay on HCC70 cells was determined as 3.98 nM; in assay [1], 1000 nM; on CDK2/cyclin E1 complex, 2150 nM; on CDK9/CyclinT1 it was 2870 nM; in assay [2] it was 5.62 nM; in the assay on A2780 cells it was 5.61 nM.

For `CC1COCCC1c1ccc2c(-c3nc(N[C@H]4CCCNC4)ncc3C(F)(F)F)c[nH]c2n1` (stereo partly drawn) [Compound 110, 4-(6-(3-methyltetrahydropyran-4-yl)-1H-pyrrol[2,3-b]pyridin-3-yl)-N—((S)-piperidin-3-yl)-5-(trifluoromethyl)pyrimidine-2-amine formate], the half-maximal inhibitory concentration (IC50) was 38.6 nM with HCC70 cells; 1610 nM in assay [1]; 2180 nM at CDK2/cyclin E1 complex; 4260 nM on CDK9/CyclinT1; 3.48 nM in assay [2]; 38.6 nM in the assay with A2780 cells.

In the case of `CP(C)(=O)c1ccc2c(-c3nc(N[C@H]4CCCNC4)ncc3C(F)(F)F)c[nH]c2n1` [Compound 114, (S)-dimethyl(3-(2-(piperidine-3-amino)-5-(trifluoromethyl)pyrimidin-4-yl)-1H-pyrrolo[2,3-b]pyridin-6-yl)phosphine oxide formate], the IC50 was found to be 18.1 nM in the assay on HCC70 cells; 1210 nM in assay [1]; 1720 nM on CDK2/cyclin E1 complex; 2470 nM at CDK9/CyclinT1; 6.73 nM in assay [2]; 17.6 nM in the assay with A2780 cells.

For `C[C@@H]1CNC[C@@H](Nc2ncc(C(F)(F)F)c(-c3c[nH]c4nc(N5CCOC[C@@H]5C)ccc34)n2)C1` [Compound 115, 4-(6-((S)-3-methylmorpholinyl)-1H-pyrrol[2,3-b]pyridin-3-yl)-N-((3S,5S)-5-methylpiperidin-3-yl)-5-(trifluoromethyl)pyrimidine-2-amine], the IC50 came out at 42 nM in the assay with HCC70 cells; 12900 nM in assay [1]; 19500 nM on CDK2/cyclin E1 complex; 27700 nM on CDK9/CyclinT1; 9.52 nM in assay [2]; 45.5 nM with A2780 cells.

The values are drawn from US20240132489A1, “AROMATIC HETEROCYCLIC COMPOUND, PHARMACEUTICAL COMPOSITION, AND USE THEREOF” (GT APEIRON THERAPEUTICS LIMITED, priority 2020, published 2024).
